Among the data in ChEMBL document CHEMBL5726170, “Histone demethylase inhibitors” (2019) are IC50 values, retold here.

A short description of the test: JMJD2C Assay: The ability of test compounds to inhibit the activity of JMJD2C was determined in 384-well plate format under the following reaction conditions: 0.3 nM JMJD2C, 300 nM H3K9me3-biotin labeled peptide (Anaspec cat #64360), 2 μM alpha-ketoglutaric acid in assay buffer of 50 mM HEPES, pH7.3, 0.005% Brij35, 0.5 mM TCEP, 0.2 mg/ml BSA, 50 μM sodium L-ascorbate, and 2 μM ammonium iron(II) sulfate. Reaction product was determined quantitatively by TR-FRET after the addition of detection reagent Phycolink Streptavidin-allophycocyanin (Prozyme) and Europium-anti-di-methylated histone H3 lysine 9 (H3K9me2) antibody (PerkinElmer) in the presence of 5 mM EDTA in LANCE detection buffer (PerkinElmer) at a final concentration of 50 nM and 1 nM, respectively.The assay reaction was initiated by the following: 2 μl of the mixture of 900 nM H3K9me3-biotin labeled peptide and 6 μM alpha-ketoglutaric acid with 2 μl of 11-point serial diluted inhibitor in 3% DMSO were added to each well of the plate, followed by the addition of 2 μl of 0.9 nM JMJD2C to initiate the reaction. The reaction mixture was incubated at room temperature for 30 min, and terminated by the addition of 6 μl of 5 mM EDTA in LANCE detection buffer containing 100 nM Phycolink Streptavidin-allophycocyanin and 2 nM Europium-anti-H3K9me2 antibody. Plates were read by EnVisionMultilabel Reader in TR-FRET mode (excitation at 320 nm, emission at 615 nm and 665 nm) after 1 hr incubation at rt. A ratio was calculated (665/615) for each well and fitted to determine inhibition constant (IC50).
As usually defined, the IC50 is the midpoint of a concentration-inhibition curve. Turning to `O=C(O)c1ccncc1NCC1CCOc2cc(F)ccc21` (centres undefined), the IC50 result is “in the range around 0.55 µM”.
For `O=C(O)c1ccncc1NCC1CCCc2cc(OC(F)(F)F)ccc21` (centres undefined), the IC50 entry was “in the range around 5.5 µM”.
The result for `O=C(O)c1ccncc1NCC1CCCc2c(OCC3CC3)cccc21` (centres undefined) reads “in the range around 5.5 µM”.
For the molecule `O=C(O)c1ccncc1NCC1CCCc2c(Oc3ccccc3)cccc21` (centres undefined), the IC50 result was “in the range around 5.5 µM”.
